Test system: MV-4-11 cells
Assay: Gene expression microarray analysis (Affymetrix PrimeView) and GSEA
Assay type: cell-based, human
Design: RFU PODN (11730768_x_at) / Fold change /veh PODN (11730768_x_at) / RFU LINC00158 (11744669_a_at) / Fold change /veh LINC00158 (11744669_a_at) / RFU DUSP10 (11751237_a_at) / Fold change /veh DUSP10 (11751237_a_at) / RFU ID3 (11757404_x_at) / Fold change /veh ID3 (11757404_x_at) / RFU PLEKHG5 (11737974_s_at) / Fold change /veh PLEKHG5 (11737974_s_at) / RFU LRRC4B (11730491_at) / Fold change /veh LRRC4B (11730491_at) / RFU GIMAP4 (11747438_a_at) / Fold change /veh GIMAP4 (11747438_a_at) / RFU KRT8 (11758183_x_at) / Fold change /veh KRT8 (11758183_x_at) / RFU CNN1 (11734310_a_at) / Fold change /veh CNN1 (11734310_a_at) / RFU VPS37D (11726825_at) / Fold change /veh VPS37D (11726825_at) / RFU C10orf10 (11716522_x_at) / Fold change /veh C10orf10 (11716522_x_at) / RFU KIR2DL2 /// KIR2DL4 /// KIR2DL5A /// KIR2DL5B /// KIR2DS1 /// KIR2DS2 /// KIR2DS3 /// KIR2DS4 /// KIR3DL3 /// KIR3DL3 /// KIR3DS1 (11738374_at) / Fold change /veh KIR2DL2 /// KIR2DL4 /// KIR2DL5A /// KIR2DL5B /// KIR2DS1 /// KIR2DS2 /// KIR2DS3 /// KIR2DS4 /// KIR3DL3 /// KIR3DL3 /// KIR3DS1 (11738374_at) / RFU C1QL1 (11718748_at) / Fold change /veh C1QL1 (11718748_at) / RFU TMPRSS4 (11747572_a_at) / Fold change /veh TMPRSS4 (11747572_a_at) / RFU HAMP (11756126_x_at) / Fold change /veh HAMP (11756126_x_at) / RFU RNFT2 (11725882_a_at) / Fold change /veh RNFT2 (11725882_a_at) / RFU NR4A2 (11747474_a_at) / Fold change /veh NR4A2 (11747474_a_at) / RFU ABCC12 (11746883_a_at) / Fold change /veh ABCC12 (11746883_a_at) / RFU TMEM136 (11760407_x_at) / Fold change /veh TMEM136 (11760407_x_at) / RFU CLDN22 /// WWC2 (11732394_at) / Fold change /veh CLDN22 /// WWC2 (11732394_at) / RFU HLA-DPB1 (11760878_x_at) / Fold change /veh HLA-DPB1 (11760878_x_at) / RFU SPINT1 (11716480_a_at) / Fold change /veh SPINT1 (11716480_a_at) / RFU GAP43 (11754022_s_at) / Fold change /veh GAP43 (11754022_s_at) / RFU A4GNT (11735810_at) / Fold change /veh A4GNT (11735810_at) / RFU PRB3 (11715151_x_at) / Fold change /veh PRB3 (11715151_x_at) / RFU TUBB4B (11761932_at) / Fold change /veh TUBB4B (11761932_at) / RFU CAPN14 (11732068_a_at) / Fold change /veh CAPN14 (11732068_a_at) / RFU TMCC2 (11721928_a_at) / Fold change /veh TMCC2 (11721928_a_at) / RFU IRGQ (11745062_a_at) / Fold change /veh IRGQ (11745062_a_at) / RFU FAM174B (11720279_a_at) / Fold change /veh FAM174B (11720279_a_at) / RFU TMPRSS4 (11748680_a_at) / Fold change /veh TMPRSS4 (11748680_a_at) / RFU FAM212B (11763350_a_at) / Fold change /veh FAM212B (11763350_a_at) / RFU PLEKHG5 (11743358_a_at) / Fold change /veh PLEKHG5 (11743358_a_at) / RFU ZSCAN30 (11745921_a_at) / Fold change /veh ZSCAN30 (11745921_a_at) / RFU CMKLR1 (11741424_a_at) / Fold change /veh CMKLR1 (11741424_a_at) / RFU LOC101060620 /// MAPK8IP1 (11723275_at) / Fold change /veh LOC101060620 /// MAPK8IP1 (11723275_at) / RFU SPTSSB (11747773_x_at) / Fold change /veh SPTSSB (11747773_x_at) / RFU PRSS12 (11739890_at) / Fold change /veh PRSS12 (11739890_at) / RFU BIN1 (11741810_x_at) / Fold change /veh BIN1 (11741810_x_at) / RFU WNT11 (11732464_a_at) / Fold change /veh WNT11 (11732464_a_at) / RFU C10orf10 (11716521_a_at) / Fold change /veh C10orf10 (11716521_a_at) / RFU C5orf56 (11738089_at) / Fold change /veh C5orf56 (11738089_at) / RFU CYB561 (11721691_x_at) / Fold change /veh CYB561 (11721691_x_at) / RFU ANKRD19P (11752326_a_at) / Fold change /veh ANKRD19P (11752326_a_at) / RFU OR2T12 /// OR2T33 /// OR2T8 (11738714_s_at) / Fold change /veh OR2T12 /// OR2T33 /// OR2T8 (11738714_s_at) / RFU VCAN (11748164_a_at) / Fold change /veh VCAN (11748164_a_at) / RFU JSRP1 (11732532_at) / Fold change /veh JSRP1 (11732532_at) / RFU KRTAP10-11 (11738290_x_at) / Fold change /veh KRTAP10-11 (11738290_x_at) / RFU MYO3A (11730013_a_at) / Fold change /veh MYO3A (11730013_a_at) / RFU EBF3 (11725865_a_at) / Fold change /veh EBF3 (11725865_a_at) / RFU CAMK2N1 (11719241_x_at) / Fold change /veh CAMK2N1 (11719241_x_at) / RFU C5orf56 (11738088_a_at) / Fold change /veh C5orf56 (11738088_a_at) / RFU OLFML3 (11715873_a_at) / Fold change /veh OLFML3 (11715873_a_at) / RFU LOC100653217 /// NTM (11731650_a_at) / Fold change /veh LOC100653217 /// NTM (11731650_a_at) / RFU MAPK11 (11762145_a_at) / Fold change /veh MAPK11 (11762145_a_at) / RFU FIZ1 (11724087_x_at) / Fold change /veh FIZ1 (11724087_x_at) / RFU OASL (11726364_x_at) / Fold change /veh OASL (11726364_x_at) / RFU SOX15 (11748057_x_at) / Fold change /veh SOX15 (11748057_x_at) / RFU CD79A (11719716_a_at) / Fold change /veh CD79A (11719716_a_at) / RFU HIST1H1D (11736915_at) / Fold change /veh HIST1H1D (11736915_at) / RFU CASKIN2 (11723855_a_at) / Fold change /veh CASKIN2 (11723855_a_at) / RFU LOC730098 (11760151_x_at) / Fold change /veh LOC730098 (11760151_x_at) / RFU OR4N2 (11742367_at) / Fold change /veh OR4N2 (11742367_at) / RFU PRRT2 (11749266_a_at) / Fold change /veh PRRT2 (11749266_a_at) / RFU SNX32 (11753110_a_at) / Fold change /veh SNX32 (11753110_a_at) / RFU CDHR5 (11726645_a_at) / Fold change /veh CDHR5 (11726645_a_at) / RFU RCAN1 (11760418_a_at) / Fold change /veh RCAN1 (11760418_a_at) / RFU FAM167A (11723789_a_at) / Fold change /veh FAM167A (11723789_a_at) / RFU FAM26E (11764081_at) / Fold change /veh FAM26E (11764081_at) / RFU ISYNA1 (11749810_s_at) / Fold change /veh ISYNA1 (11749810_s_at) / RFU ACY1 (11761880_at) / Fold change /veh ACY1 (11761880_at) / RFU 11764098_at / Fold change /veh 11764098_at / RFU SAMD14 (11745864_x_at) / Fold change /veh SAMD14 (11745864_x_at) / RFU NPB (11741838_a_at) / Fold change /veh NPB (11741838_a_at) / RFU TMPRSS6 (11731388_a_at) / Fold change /veh TMPRSS6 (11731388_a_at) / RFU KRTAP10-2 (11738614_at) / Fold change /veh KRTAP10-2 (11738614_at) / RFU ARHGAP8 /// PRR5-ARHGAP8 (11727945_x_at) / Fold change /veh ARHGAP8 /// PRR5-ARHGAP8 (11727945_x_at) / RFU KRTAP5-7 /// NADSYN1 (11734609_at) / Fold change /veh KRTAP5-7 /// NADSYN1 (11734609_at) / RFU RASL12 (11751679_a_at) / Fold change /veh RASL12 (11751679_a_at) / RFU CDKN2B (11736163_a_at) / Fold change /veh CDKN2B (11736163_a_at) / RFU PRF1 (11729649_at) / Fold change /veh PRF1 (11729649_at) / RFU, ZNF638 /// ZNF638-IT1 / Fold change vs veh, ZNF638 /// ZNF638-IT1 / RFU, PANK3 / Fold change vs veh, PANK3 / RFU, SH3YL1 / Fold change vs veh, SH3YL1 / RFU, ZEB2 / Fold change vs veh, ZEB2 / RFU, NRIP1 / Fold change vs veh, NRIP1 / RFU, PTTG1IP / Fold change vs veh, PTTG1IP / RFU, CAPN2 / Fold change vs veh, CAPN2 / RFU, MED14 / Fold change vs veh, MED14 / RFU, SNORA58 / Fold change vs veh, SNORA58 / RFU, C1orf63 / Fold change vs veh, C1orf63 / RFU, LRRFIP1 / Fold change vs veh, LRRFIP1 / RFU, NDUFAF7 / Fold change vs veh, NDUFAF7 / RFU, SLC12A2 / Fold change vs veh, SLC12A2 / RFU, IBTK / Fold change vs veh, IBTK / RFU, ESF1 / Fold change vs veh, ESF1 / Fold change vs veh, TMEM50B / RFU, TAOK1 / Fold change vs veh, TAOK1 / RFU, ACBD3 / Fold change vs veh, ACBD3 / RFU, TMA16 / Fold change vs veh, TMA16 / RFU, RWDD3 / Fold change vs veh, RWDD3 / RFU, BCAT1 / Fold change vs veh, BCAT1 / RFU, EDEM3 / Fold change vs veh, EDEM3 / RFU, TMEM33 / Fold change vs veh, TMEM33 / RFU, WDR75 / Fold change vs veh, WDR75 / RFU, AHCTF1 / Fold change vs veh, AHCTF1 / RFU, TFRC / Fold change vs veh, TFRC / RFU, ZDHHC17 / Fold change vs veh, ZDHHC17 / RFU, NOM1 / Fold change vs veh, NOM1 / RFU, ARL8B / Fold change vs veh, ARL8B / RFU, ZBTB11 / Fold change vs veh, ZBTB11 / RFU, TAMM41 / Fold change vs veh, TAMM41 / RFU, KIAA1704 /// LOC100996395 / Fold change vs veh, KIAA1704 /// LOC100996395 / RFU, ING1 / Fold change vs veh, ING1 / RFU, TRMT61B / Fold change vs veh, TRMT61B / RFU, FUBP3 / Fold change vs veh, FUBP3 / RFU, TP53 / Fold change vs veh, TP53 / RFU, TNKS2 / Fold change vs veh, TNKS2 / RFU, ZFP14 / Fold change vs veh, ZFP14 / RFU, ACTR2 / Fold change vs veh, ACTR2 / RFU, PPP3R1 / Fold change vs veh, PPP3R1 / RFU, PIK3R1 / Fold change vs veh, PIK3R1 / RFU, HNRNPA1 / Fold change vs veh, HNRNPA1 / RFU, RNF170 / Fold change vs veh, RNF170 / RFU, ZNF28 / Fold change vs veh, ZNF28 / RFU, RNGTT / Fold change vs veh, RNGTT / RFU, OGT / Fold change vs veh, OGT / RFU, BRD1 / Fold change vs veh, BRD1 / RFU, MARS / Fold change vs veh, MARS / RFU, ZNF655 / Fold change vs veh, ZNF655 / RFU, FAHD1 / Fold change vs veh, FAHD1 / RFU, BDP1 / Fold change vs veh, BDP1 / RFU, LRRCC1 / Fold change vs veh, LRRCC1 / RFU, ARID1A / Fold change vs veh, ARID1A / RFU, ZNF146 / Fold change vs veh, ZNF146 / RFU, ZNF330 / Fold change vs veh, ZNF330 / RFU, GPN3 / Fold change vs veh, GPN3 / RFU, C9orf123 / Fold change vs veh, C9orf123 / RFU, N4BP2L2 / Fold change vs veh, N4BP2L2 / RFU, ARFIP1 / Fold change vs veh, ARFIP1 / RFU, FAM179B / Fold change vs veh, FAM179B / RFU, BCL10 / Fold change vs veh, BCL10 / RFU, UHRF1BP1L / Fold change vs veh, UHRF1BP1L / RFU, BET1 / Fold change vs veh, BET1 / RFU, CNOT2 / Fold change vs veh, CNOT2 / RFU, ZNF268 / Fold change vs veh, ZNF268 / Fold change vs veh, ZNF507 / RFU, DGCR2 / Fold change vs veh, DGCR2 / RFU, WDSUB1 / Fold change vs veh, WDSUB1 / Fold change vs veh, HSP90B1 /// MIR3652 / RFU, ADSS / Fold change vs veh, ADSS / RFU, GK / Fold change vs veh, GK / RFU, ZNF148 / Fold change vs veh, ZNF148 / RFU, TAF9 / Fold change vs veh, TAF9 / RFU, SLC1A5 / Fold change vs veh, SLC1A5 / RFU, SLMO2 / Fold change vs veh, SLMO2 / RFU, ABCC4 / Fold change vs veh, ABCC4 / RFU, LOC101060439 /// RAP1B / Fold change vs veh, LOC101060439 /// RAP1B / RFU, RFX7 / Fold change vs veh, RFX7 / RFU, GTPBP10 / Fold change vs veh, GTPBP10 / RFU, CNEP1R1 / Fold change vs veh, CNEP1R1 / RFU, BIVM-ERCC5 /// ERCC5 / Fold change vs veh, BIVM-ERCC5 /// ERCC5 / RFU, ILF3 / Fold change vs veh, ILF3 / RFU 11762660_at / Fold change /veh 11762660_at / RFU VCAN (11757783_s_at) / Fold change /veh VCAN (11757783_s_at) / RFU DDX43 (11728927_at) / Fold change /veh DDX43 (11728927_at) / RFU KRT8 (11758188_x_at) / Fold change /veh KRT8 (11758188_x_at) / RFU NKD1 (11759106_at) / Fold change /veh NKD1 (11759106_at) / RFU SRD5A1 (11742802_a_at) / Fold change /veh SRD5A1 (11742802_a_at) / RFU TPSAB1 /// TPSB2 (11721975_s_at) / Fold change /veh TPSAB1 /// TPSB2 (11721975_s_at) / RFU GSTM3 (11746129_a_at) / Fold change /veh GSTM3 (11746129_a_at) / RFU IL23R (11737362_x_at) / Fold change /veh IL23R (11737362_x_at) / RFU TMEM51 (11727254_a_at) / Fold change /veh TMEM51 (11727254_a_at) / RFU PIWIL2 (11732686_x_at) / Fold change /veh PIWIL2 (11732686_x_at) / RFU ORM1 (11744905_x_at) / Fold change /veh ORM1 (11744905_x_at) / RFU CCDC152 (11743942_at) / Fold change /veh CCDC152 (11743942_at) / RFU ECM1 (11717891_a_at) / Fold change /veh ECM1 (11717891_a_at) / RFU IL23R (11748794_a_at) / Fold change /veh IL23R (11748794_a_at) / RFU TNFAIP8L3 (11732012_x_at) / Fold change /veh TNFAIP8L3 (11732012_x_at) / RFU MBOAT4 (11741988_at) / Fold change /veh MBOAT4 (11741988_at) / RFU 11764193_at / Fold change /veh 11764193_at / RFU TMEM53 (11763286_at) / Fold change /veh TMEM53 (11763286_at) / RFU MAGEB2 (11727129_at) / Fold change /veh MAGEB2 (11727129_at) / RFU TMEM200A (11744735_a_at) / Fold change /veh TMEM200A (11744735_a_at) / RFU CCDC152 (11751479_a_at) / Fold change /veh CCDC152 (11751479_a_at) / RFU FAM211A (11726209_a_at) / Fold change /veh FAM211A (11726209_a_at) / RFU RGS16 (11746705_a_at) / Fold change /veh RGS16 (11746705_a_at) / RFU VCAN (11755009_s_at) / Fold change /veh VCAN (11755009_s_at) / RFU RHOB (11743442_s_at) / Fold change /veh RHOB (11743442_s_at) / RFU RGS16 (11720943_a_at) / Fold change /veh RGS16 (11720943_a_at) / RFU RGS16 (11720944_at) / Fold change /veh RGS16 (11720944_at) / RFU, VPS4B / Fold change vs veh, VPS4B / RFU, CREB1 / Fold change vs veh, CREB1 / RFU, DNAJC13 / Fold change vs veh, DNAJC13 / RFU, GNAQ / Fold change vs veh, GNAQ / RFU, CDK5R1 / Fold change vs veh, CDK5R1 / RFU, ZRANB3 / Fold change vs veh, ZRANB3 / RFU, CUL4A / Fold change vs veh, CUL4A / RFU, CCNY / Fold change vs veh, CCNY / RFU, UFL1 / Fold change vs veh, UFL1 / RFU, COG3 / Fold change vs veh, COG3 / RFU, DIAPH2 / Fold change vs veh, DIAPH2 / RFU, SKA2 / Fold change vs veh, SKA2 / RFU, AFF3 / Fold change vs veh, AFF3 / RFU, LMF1 / Fold change vs veh, LMF1 / RFU, IPO11 / Fold change vs veh, IPO11 / RFU, DFFB / Fold change vs veh, DFFB / RFU, FOXP1 / Fold change vs veh, FOXP1 / RFU, CARD8 / Fold change vs veh, CARD8 / RFU, STRN3 / Fold change vs veh, STRN3 / RFU, ADK / Fold change vs veh, ADK / RFU, RASSF2 / Fold change vs veh, RASSF2 / RFU, WIPF1 / Fold change vs veh, WIPF1 / RFU, LARP1B / Fold change vs veh, LARP1B / RFU, RASA1 / Fold change vs veh, RASA1 / RFU, RB1 / Fold change vs veh, RB1 / RFU, PPFIA1 / Fold change vs veh, PPFIA1 / RFU, MAT2A / Fold change vs veh, MAT2A / RFU, CCT5 / Fold change vs veh, CCT5 / RFU, WDR92 / Fold change vs veh, WDR92 / RFU, CUX1 / Fold change vs veh, CUX1 / RFU, TTC7A / Fold change vs veh, TTC7A / RFU, TMEM135 / Fold change vs veh, TMEM135 / RFU, DEPTOR / Fold change vs veh, DEPTOR / RFU, CPM / Fold change vs veh, CPM / RFU, DNAJB6 / Fold change vs veh, DNAJB6 / RFU, CACNA2D3 / Fold change vs veh, CACNA2D3 / RFU, DTX4 / Fold change vs veh, DTX4 / RFU, TFCP2 / Fold change vs veh, TFCP2 / RFU, GMCL1 /// GMCL1P1 / Fold change vs veh, GMCL1 /// GMCL1P1 / RFU, AEBP2 / Fold change vs veh, AEBP2 / RFU, SNHG1 /// SNORD22 /// SNORD25 /// SNORD26 /// SNORD27 /// SNORD28 /// SNORD29 /// SNORD31 / Fold change vs veh, SNHG1 /// SNORD22 /// SNORD25 /// SNORD26 /// SNORD27 /// SNORD28 /// SNORD29 /// SNORD31 / Fold change (Aza/veh), C12orf56 (ProbeSet 11735607_a_at) / Fold change (ACY-1035/veh), C12orf56 (ProbeSet 11735607_a_at) / Fold change (Aza/veh), FGFR1OP (ProbeSet 11751329_s_at) / Fold change (ACY-1035/veh), FGFR1OP (ProbeSet 11751329_s_at) / Fold change (Aza/veh), VPS36 (ProbeSet 11739960_a_at) / Fold change (ACY-1035/veh), VPS36 (ProbeSet 11739960_a_at) / RFU SYPL1 (11715823_x_at) / Fold change /veh SYPL1 (11715823_x_at) / RFU IGFBP7 (11715501_s_at) / Fold change /veh IGFBP7 (11715501_s_at) / RFU REEP3 (11722064_at) / Fold change /veh REEP3 (11722064_at) / RFU IGLL1 (11728026_x_at) / Fold change /veh IGLL1 (11728026_x_at): dose or concentration left out as unconfirmed
Details: MV-4-11 cells, 48 hours

Structure (SMILES): Nc1ccc(-c2cccs2)cc1NC(=O)c1ccc2c(c1)cc(C1CC1)n2CCN1CCOCC1 [ACY-1035]
- Fold change /veh MAPK11 (11762145_a_at): 0.89

Reference: paper PMC5218480 (PLoS ONE, 2017)
